Test system: participants with ET
Test: Phase 2 trial: treatment-emergent adverse events (TEAEs)
Type: in vivo
Description: Part A of the clinical trial was open-label and assessed the safety and tolerability of the study drug, as well as the overall magnitude and pattern of change in ET severity.
Part B of the clinical trial consisted of both an open-label titration phase and a randomized, double-blind, placebo-controlled withdrawal phase. Part B assessed the safety and tolerability of the study drug, as well as the overall magnitude and pattern of change in ET severity and the duration of that effect. […] In the randomized, double-blind, placebo-controlled withdrawal phase, participants were either maintained on their final open-label dose or switched to placebo for an additional 14 days (Days 43 to 56).
Key safety measures included clinical laboratory evaluations, 12-lead ECG, C-SSRS, and vital signs. Key efficacy assessments included the TETRAS Performance subscale, TETRAS Upper Limb using accelerometry, CGI, and PGI-C. Blood samples were obtained for the determination of study drug plasma concentrations using a validated bioanalytical method and may also be used for method development and/or metabolite characterization.
On Day 1, participants received a 20 mg dose of study drug on an empty stomach (at least 1 hour before breakfast). Participants remained in a clinical setting under medical observation for approximately 6 hours. TETRAS Performance assessments were performed before dosing and 6 hours (±2) post-dose. For dosing on Day 2 through Day 41, participants were instructed to dose QAM at least 1 hour before breakfast at home. Participants continued taking study drug 20 mg QAM at home through Day 3. […] On Day 4, participants escalated to 40 mg QAM through Day 7, when they returned to the clinic for safety assessments and efficacy testing. On Day 8, participants escalated to 60 mg QAM through Day 14. […] On Day 15, participants escalated to 80 mg QAM through Day 21, when they returned to the clinic for safety assessments and efficacy testing. On Day 22, participants escalated to 100 mg QAM through Day 28. […] On Day 29, participants escalated to 120 mg QAM through Day 42, when they returned to the clinic for safety assessments and efficacy testing. The dose on Day 42 was taken in the clinic. On Day 35, participants received a telephone call from site staff to inquire about AEs and concomitant medications. On Day 41, participants completed a TETRAS Performance Upper Limb assessment via a telehealth visit. […] Participants could only change to a lower dose level once, and no dose changes were allowed to occur after Day 36.
In both phases, key safety measures included clinical laboratory evaluations, 12-lead ECG, C-SSRS, and vital signs. Key efficacy assessments included the TETRAS Performance subscale, TETRAS Upper Limb using accelerometry, CGI, PGI-C, TETRAS ADL Subscale, QUEST, BDI-II, and BAI. Blood samples were obtained for the determination of study drug and metabolite plasma concentrations.

[1] = Part A, Overall, N = 7, listed as study drug
[2] = Part B - RWD, study drug group, N = 6

Compound: CC(C)(C)NC(=O)CN1CCC(CNC(=O)c2cc(F)cc(Cl)c2)CC1.Cl [Study drug]
- Drug-related TEAE dizziness (Part A): 3 participants
- participants experiencing TEAEs considered related to study drug (Part A): 57.1%
- participants who experienced at least 1 TEAE (Part A): 85.7%
- Any TEAE (Part A (overall), N = 7): 6 (85.7) n (%)
- Any TEAE leading to study drug withdrawal (Part A (overall), N = 7): 1 (14.3) n (%)
- Any TEAE related to disease under study (Part A (overall), N = 7): 1 (14.3) n (%)
- Any TEAE related to study drug (Part A (overall), N = 7): 4 (57.1) n (%)
- Any TEAE related to study procedure (Part A (overall), N = 7): 0 n (%)
- Any fatal SAEs (Part A (overall), N = 7): 0 n (%)
- Any serious adverse events (Part A (overall), N = 7): 0 n (%)
- TEAE Mild (Part A (overall), N = 7): 6 (85.7) n (%)
- TEAE Moderate (Part A (overall), N = 7): 1 (14.3) n (%)
- TEAE Severe (Part A (overall), N = 7): 0 n (%)
- participants who experienced AEs leading to study drug withdrawal (Part A and open-label titration phase of Part B together): 7 participants
- Any TEAE (Part A, 20 mg, N = 7): 6 (85.7) n (%)
- TEAE PT Dizziness (Part A, 20 mg, N = 7): 4 (57.1) n (%)
- TEAE PT Headache (Part A, 20 mg, N = 7): 3 (42.9) n (%)
- TEAE SOC Nervous System Disorders (Part A, 20 mg, N = 7): 6 (85.7) n (%)
- TEAE SOC Psychiatric Disorders (Part A, 20 mg, N = 7): 2 (28.6) n (%)
- Any TEAE (Part A, 40 mg, N = 6): 2 (33.3) n (%)
- TEAE PT Dizziness (Part A, 40 mg, N = 6): 0 n (%)
- TEAE PT Headache (Part A, 40 mg, N = 6): 1 (16.7) n (%)
- TEAE SOC Nervous System Disorders (Part A, 40 mg, N = 6): 1 (16.7) n (%)
- TEAE SOC Psychiatric Disorders (Part A, 40 mg, N = 6): 0 n (%)
- Any TEAE (Part A, Overall, N = 7): 6 (85.7) n (%)
- TEAE PT Dizziness (Part A, Overall, N = 7): 4 (57.1) n (%)
- TEAE PT Headache (Part A, Overall, N = 7): 3 (42.9) n (%)
- TEAE SOC Nervous System Disorders (Part A, Overall, N = 7): 6 (85.6) n (%)
- TEAE SOC Psychiatric Disorders (Part A, Overall, N = 7): 2 (28.6) n (%)
- Any TEAE leading to study drug withdrawal [1]: 1 n (%)
- TEAE PT Dizziness [1]: 4 n (%)
- TEAE PT Headache [1]: 3 n (%)
- Any TEAE (Part B - OLT, N = 17): 15 n (%)
- Any TEAE leading to study drug withdrawal (Part B - OLT, N = 17): 6 n (%)
- Any TEAE related to disease under study (Part B - OLT, N = 17): 1 n (%)
- Any TEAE related to study drug (Part B - OLT, N = 17): 12 n (%)
- Any TEAE related to study procedure (Part B - OLT, N = 17): 0 n (%)
- Any fatal SAEs (Part B - OLT, N = 17): 0 n (%)
- Any serious adverse events (Part B - OLT, N = 17): 1 n (%)
- TEAE Mild (Part B - OLT, N = 17): 13 n (%)
- TEAE Moderate (Part B - OLT, N = 17): 7 n (%)
- TEAE Severe (Part B - OLT, N = 17): 0 n (%)
- Any TEAE [2]: 1 (16.7) n (%)
- Any TEAE leading to study drug withdrawal [2]: 0 n (%)
- Any TEAE related to disease under study [2]: 0 n (%)
- Any TEAE related to study drug [2]: 0 n (%)
- Any TEAE related to study procedure [2]: 0 n (%)
- Any fatal SAEs [2]: 0 n (%)
- Any serious adverse events [2]: 0 n (%)
- TEAE Mild [2]: 1 (16.7) n (%)
- TEAE Moderate [2]: 1 (16.7) n (%)
- TEAE Severe [2]: 0 n (%)
- Any TEAE (Part B - RWD, study drug group, N = 6, listed as study drug): 1 n (%)
- Any TEAE (Part B, 20 mg, N = 17): 10 n (%)
- PT Cognitive disorder (Part B, 20 mg, N = 17): 2 n (%)
- PT Constipation (Part B, 20 mg, N = 17): 1 n (%)
- PT Dizziness (Part B, 20 mg, N = 17): 4 n (%)
- PT Fatigue (Part B, 20 mg, N = 17): 2 n (%)
- PT Insomnia (Part B, 20 mg, N = 17): 1 n (%)
- SOC Gastrointestinal Disorders (Part B, 20 mg, N = 17): 3 n (%)
- SOC General Disorders and Administration Site Conditions (Part B, 20 mg, N = 17): 2 n (%)
- SOC Musculoskeletal and Connective Tissue Disorders (Part B, 20 mg, N = 17): 1 n (%)
- SOC Nervous System Disorders (Part B, 20 mg, N = 17): 8 n (%)
- SOC Psychiatric Disorders (Part B, 20 mg, N = 17): 1 n (%)
- SOC Vascular Disorders (Part B, 20 mg, N = 17): 0 n (%)
- Any TEAE (Part B, 40 mg, N = 15): 8 n (%)
- PT Cognitive disorder (Part B, 40 mg, N = 15): 1 n (%)
- PT Constipation (Part B, 40 mg, N = 15): 3 n (%)
- PT Dizziness (Part B, 40 mg, N = 15): 1 n (%)
- PT Fatigue (Part B, 40 mg, N = 15): 1 n (%)
- PT Insomnia (Part B, 40 mg, N = 15): 2 n (%)
- SOC Gastrointestinal Disorders (Part B, 40 mg, N = 15): 3 n (%)
- SOC General Disorders and Administration Site Conditions (Part B, 40 mg, N = 15): 2 n (%)
- SOC Musculoskeletal and Connective Tissue Disorders (Part B, 40 mg, N = 15): 0 n (%)

— patent US20250170114A1, “METHODS OF TREATMENT USING T-TYPE CALCIUM CHANNEL MODULATORS” (Praxis Precision Medicines, Inc., priority 2022, published 2025)
